Literature values, collected in US20110263659A1, “Analogs of 1-Methylnicotinamide” (Cortria Corporation, priority 2008, published 2011).

Tests used:
[1] = human subjects; studies from Smolenski et al.
[2] = tested on: prostacyclin (PGI2) release; conditions: preclinical; PCT/IB06/004013, PCT/EP05/050057, US 11/715,660
[3] = di-hydro-MNA 1 mmol/kg s.c., HPLC

Row | Molecule | increase of brain tissue levels of 1-MNA (factor) (di-hydro-MNA 1 mmol/kg s.c.) | increase in liver 1-MNA levels [3] [fold] | increase in plasma 1-MNA levels [3] [fold] | maximum 1-MNA levels in brain extracellular fluid (di-hydro-MNA 1-3 mmol/kg s.c.) [µM] | half life [1] [h] | ability to stimulate the release of prostacyclin (PGI2) [2]
1 | CN1C=CCC(C(N)=O)=C1 [di-hydro-MNA, 1,4-dihydro-1-methylnicotinamide] | twenty | 9 | 4 | > 10 | – | –
2 | 1-Methylnicotinamide [1-MNA] | – | – | – | – | 2 to 3 | ability to stimulate the release of prostacyclin (PGI2)
